Measurements from US7534887B2, “Thiazoline derivative and use of the same” (Takeda Pharmaceutical Company Limited, priority 2003, dated 2009).
Counter-ions that a name gives are not always drawn.

Biological target: human FXa (Homo sapiens, UniProt P00742)
Experiment: Inhibitory action of human activated blood coagulation factor X (FXa)
Type: biochemical
Settings: concentration inhibiting FXa activity by 50%; substrate S-2765, 37° C., absorbance at 405 nm
Protocol: (1) Inhibitory Action of Human Activated Blood Coagulation Factor X (FXa):
Test method: A solution (225 μL) of 0.05M tris-hydrochloric acid buffers (pH=8.3) containing 0.145 M of sodium chloride and 2 mM of calcium chloride, a test compound dissolved in dimethyl sulfoxide (5 μL) and human FXa (10 μL, 0.3 unit/ml) were added to a 96-well microplate and reacted at 37° C. for about 10 minutes, and then a substrate (10 μL, 3 mM, S-2765) was added to be reacted at 37° C. for 10 minutes. Then, after aqueous 50% acetic acid (25 μL) was added there to stop the reaction, the change of absorbance at 405 nm was measured by a microplatereader, and a concentration inhibiting FXa activity by 50% (IC50) was calculated.

Sequence of human FXa (P00742 235-488 limits assumed): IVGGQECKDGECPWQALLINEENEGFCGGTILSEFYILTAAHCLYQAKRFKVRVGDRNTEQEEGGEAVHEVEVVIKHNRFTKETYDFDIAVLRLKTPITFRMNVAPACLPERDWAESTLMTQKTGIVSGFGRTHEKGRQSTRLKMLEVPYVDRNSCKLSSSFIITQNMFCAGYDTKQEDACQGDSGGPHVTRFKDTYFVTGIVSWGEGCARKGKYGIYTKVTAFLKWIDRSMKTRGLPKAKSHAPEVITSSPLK
Sequence of human FXa (P00742 41-179 partner limits assumed): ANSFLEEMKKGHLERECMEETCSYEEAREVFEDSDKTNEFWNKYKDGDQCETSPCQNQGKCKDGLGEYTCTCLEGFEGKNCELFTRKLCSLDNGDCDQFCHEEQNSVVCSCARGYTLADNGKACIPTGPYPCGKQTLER

C/N=c1\scc(CN2CCN(C(=O)CCS(=O)(=O)c3ccc4cc(Cl)ccc4c3)CC2)n1C [Example 5, N-((2Z)-4-((4-(3-((6-Chloro-2-naphthyl)sulfonyl)propanoyl)-1-piperazinyl)methyl)-3-methyl-1,3-thiazol-2(3H)-ylidene)-N-methylamine dihydrochloride]
IC50: 57 nM

Cn1c(CN2CCN(C(=O)CCS(=O)(=O)c3ccc4cc(Cl)ccc4c3)CC2)csc1=N [Example 12, 4-((4-(3-((6-Chloro-2-naphthyl)sulfonyl)propanoyl)-1-piperazinyl)methyl)-3-methyl-1,3-thiazol-2(3H)-imine dihydrochloride]
IC50: 22 nM

C/N=c1\sc(C2CCN(C(=O)CCS(=O)(=O)c3ccc4cc(Cl)ccc4c3)CC2)c(CO)n1C [Example 38]
IC50: 11 nM

COC(=O)C1CN(CC2=CSC3=NCCN23)CCN1C(=O)CCS(=O)(=O)c1ccc2cc(Cl)ccc2c1 (stereo not shown) [Example 44, Methyl 1-(3-((6-chloro-2-naphthyl)sulfonyl)propanoyl)-4-(5,6-dihydroimidazo[2,1-b][1,3]thiazol-3-ylmethyl)piperazine-2-carboxylate]
IC50: 14 nM

Cn1cc(C2CCN(C(=O)CCS(=O)(=O)c3ccc4cc(Cl)ccc4c3)CC2)sc1=N [Example 58, 5-(1-(3-((6-Chloro-2-naphthyl)sulfonyl)propanoyl)-4-piperidinyl)-3-methyl-1,3-thiazol-2(3H)-imine]
IC50: 60 nM

C/N=c1\sc(C2CCN(C(=O)CCS(=O)(=O)c3ccc4cc(Cl)ccc4c3)CC2)c(C(=O)O)n1C [Example 68, (2Z)-5-(1-(3-((6-Chloro-2-naphthyl)sulfonyl)propanoyl)-1-piperidinyl)-3-methyl-2-(methylimino)-2,3-dihydro-1,3-thiazole-4-carboxylic acid]
IC50: 8.3 nM

C/N=c1\sc(C2CCN(C(=O)CCS(=O)(=O)c3ccc4cc(Cl)ccc4c3)CC2)c(C(=O)OC)n1C [Example 77, Methyl (2Z)-5-(1-(3-((6-chloro-2-naphthyl)sulfonyl)propanoyl)-1-piperidinyl)-3-methyl-2-(methylimino)-2,3-dihydro-1,3-thiazol-4-carboxylate]
IC50: 9.4 nM

C/N=c1\sccn1CCC1CCN(C(=O)CCS(=O)(=O)c2ccc3cc(Cl)ccc3c2)CC1 [Example 83]
IC50: 6.7 nM

O=C(CCS(=O)(=O)c1ccc2cc(Cl)ccc2c1)N1CCC(/N=c2\sccn2CCO)CC1 [Example 92, 2-((2Z)-2-((1-(3-((6-Chloro-2-naphthyl)sulfonyl)propanoyl)-4-piperidinyl)imino)-1,3-thiazol-3(2H)-yl)ethanol]
IC50: 47 nM

N-((2Z)-5-(1-(3-((6-Chloro-2-naphthyl)sulfonyl)propanoyl)-1-piperidinyl)-3-methyl-1,3-thiazol-2(3H)-ylidene)-N-methylamine [Example 46]
IC50: 30 nM
